Source: patent US5010067A, “Triglyceride-water emulsion pharmaceutical vehicles” (Sandoz Pharmaceuticals Corp., priority 1988, dated 1991)
“Also recorded” adds a separate entry of the source. Where a name gives a salt, the structure may show the parent alone.

Key:
[1] = tested on: rat tail; assay: Detergent-like effects at tail vein injection site in rats, repeated daily injection for 14 days (compound in Emulsion A); assay type: in vivo; details: for Sloughing of tissue, incidence: mild sloughing in various areas (Compound A) / small dots at injection sites (Compound B); for Ischemia, incidence: by/at 14 days; for Average gain in body weight: over 14 days; for Edema, incidence: tail vein, by/at day 14; for Edema, day of onset: majority of rats; for Edema, day of onset in single late rat: one rat; for Overall damage to the rat tail / negative effects: compared with other compound or other vehicles
Description: A commercial 10% intravenous fat emulsion having 5% safflower oil and 5% soybean oil, USP, i.e. "Liposyn II 10%" described above, hereinafter referred to as Emulsion A, is employed.
The test compound is suspended or dissolved in Emulsion A at a concentration of 28 mg/ml. Probe sonification is employed to make a homogenous drug suspension or solution.
Rats are injected with 0.1 ml/100 g body weight. Control animals are injected with Emulsion A alone at the same volume as drug treated rats.
Each rat is placed in a plastic restraining tube, leaving its tail exposed A warm water soaked gauze pad is placed on the tail for approximately 10 seconds to help dilate the tail vein. A 25 gauge needle attached to a 1 cc tuberculine syringe is used to administer drug/control to the rat. To assure proper administration of doses, a negative pressure is achieved by drawing back slowly on the plunger of the syringe. A flashback of blood into the hub of the needle indicates proper placement of the needle, and drug/control is then administered slowly to the rat. After administration of dose, needle is removed and pressure with a clean gauze pad applied for approximately 10 seconds to keep fluid from flowing out of injection site. The rat is returned to its cage and procedure repeated for each animal.
Body weight and visual observations for detergent-like effects are recorded each day and at the end of the 14 day period; particularly for edema, ischemia and necrosis.
Tests were run to observe detergent-like effects on laboratory rats using as active ingredient either 3-[2-[octadecylaminocarbonyloxymethyl-tetrahydrofuran-2-ylmethoxy)-hydroxy-phosphinyloxy]-ethane]-thiazolium hydroxide inner salt-4-oxide (as Compound A) or cis-1-(2-[hydroxy[[tetrahydro-5-[(octadecylaminocarbonyl)oxy]methyl]furan- 2-yl]methoxyphosphinyloxy]ethyl)-quinolinium hydroxide, inner salt-4-oxide (as Compound B). Each of Compounds A and B was administered to a group of 5 rats.
Each of the two compounds were tested at 28 mg/kg suspended in the 10% intravenous fat emulsion. Rats were injected once a day for 14 consecutive days and monitored for the aforementioned signs of tail morbidity.

[2] = tested on: rat tail; assay: Previous tests: injection of standard water-based mixtures in rats' tails; assay type: in vivo; details: for Test halted because of detergent-like effects around the injection site: standard water-based mixtures, 25 mg/kg and over; for Reduction of detergent-like effects by adjustment of pH, or inclusion of buffers or serum albumin: water-based mixtures
[3] = 28 mg/kg once daily in Emulsion A, 14 days
[4] = 28 mg/kg once daily in Emulsion A

SMILES	Edema, severity [1, 3]	Ischemia, severity [1, 3]	Necrosis, incidence [1, 3]	Necrosis, severity / lesion size [1, 3]	Slightly larger area of sloughing, incidence [1, 3]	Sloughing of tissue, incidence [1, 3]	Ischemia, incidence [1, 4]	Average gain in body weight [1, 4] [%]	Edema, incidence [1, 4]	Edema, day of onset [1, 4] [days]	Edema, day of onset in single late rat [1, 4] [days]	Period for which tests could be run ([1]; in Emulsion A) [days]	Overall damage to the rat tail / negative effects ([1]; in Emulsion A, 14 days)	Test halted because of detergent-like effects around the injection site [2]	Reduction of detergent-like effects by adjustment of pH, or inclusion of buffers or serum albumin [2]	Animals having necrotic tissue ([1]; in Emulsion A, 14 days) [%]	Animals with sloughing of necrotic tissue ([1]; in Emulsion A, 14 days) [%]
CCCCCCCCCCCCCCCCCCNC(=O)OC[C@H]1CC[C@@H](COP(=O)([O-])OCC[n+]2cccc3ccccc32)O1 (relative stereo) [Compound B, cis-1-(2-[hydroxy[[tetrahydro-5-[(octadecylaminocarbonyl)oxy]methyl]furan-2-yl]methoxyphosphinyloxy]ethyl)-quinolinium hydroxide, inner salt-4-oxide]	mild edema	small areas of ischemia; also recorded: mild edema and ischemia	5/5	small areas of ischemia and necrosis; also recorded: very small areas; also recorded: necrotic lesions being much smaller	1/5	2/5	5/5	29.6	5/5	~4	10	14	least amount of damage to the rat tail; also recorded: visibly better	forced to halt after only a few days	had not proven satisfactory		
CCCCCCCCCCCCCCCCCCNC(=O)OCC1(COP(=O)([O-])OCC[n+]2ccsc2)CCCO1 (stereo not drawn) [Compound A]	moderate edema	moderate edema and ischemia	All rats had mottled necrotic areas			3/4	All rats displayed ischemia of entire tail	24	All rats showed some amount of edema	2 to 4	13	14	greatly reduced the negative effects	forced to halt after only a few days	had not proven satisfactory	100	75
